Measurements from PubChem BioAssay (NCI).
Where “and” joins values, the source holds several entries; their conditions need not be identical. Equal values may be shown once.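 How tested: cells in 96-well plates exposed to compound for 48 hours at five concentrations. GI50: concentration for 50% inhibition of growth. TGI denotes the concentration required for complete inhibition of growth.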

How the values were obtained:
Experiment in all cases: NCI anticancer screen, dose series, 48 h
A549 NSCLC = test system: A549 NSCLC
BT-549 breast = test system: BT-549 breast
LOX IMVI melanoma = test system: LOX IMVI melanoma
MALME-3M melanoma = test system: MALME-3M melanoma
NCI-H23 lung = test system: NCI-H23 lung
NCI-H460 lung = test system: NCI-H460 lung
SF-295 CNS = test system: SF-295 CNS
SK-OV-3 ovarian = test system: SK-OV-3 ovarian
SW-620 colon = test system: SW-620 colon
UACC-62 melanoma = test system: UACC-62 melanoma

Row | SMILES | GI50 (A549 NSCLC) | TGI (A549 NSCLC) [µM] | GI50 (BT-549 breast) [µM] | TGI (BT-549 breast) | GI50 (LOX IMVI melanoma) | TGI (LOX IMVI melanoma) [µM] | GI50 (MALME-3M melanoma) | TGI (MALME-3M melanoma) | GI50 (NCI-H23 lung) | TGI (NCI-H23 lung) | GI50 (NCI-H460 lung) | TGI (NCI-H460 lung) [µM] | GI50 (SF-295 CNS) | TGI (SF-295 CNS) | GI50 (SK-OV-3 ovarian) | TGI (SK-OV-3 ovarian) | GI50 (SW-620 colon) | TGI (SW-620 colon) [µM] | GI50 (UACC-62 melanoma) | TGI (UACC-62 melanoma)
1 | C=C(CO)[C@@H]1CC[C@]2(COC3CCCCO3)CC[C@]3(C)[C@H](CC[C@@H]4[C@@]5(C)C=C(C=O)C(=O)C(C)(C)[C@@H]5CC[C@]43C)[C@@H]12 (stereo not given in full) | 0.495 µM | 1.87 | 0.221 | 0.619 µM | 0.191 µM | 0.392 | 0.222 µM | 0.544 µM | 0.311 µM | 1.02 µM | 0.5 µM | 1.75 | 0.506 µM | 1.79 µM | 1.3 µM | 2.68 µM | 0.267 µM | 0.832 | 0.177 µM | 0.386 µM
2 | NS(=O)(=O)NCCNc1nonc1C(=Nc1ccc(F)c(Br)c1)NO | 68.9 µM | > 100 | 40.9 | > 100 µM | 27.9 µM | > 100 | 28.5 µM | > 100 µM | 28.9 µM | > 100 µM | 35.9 µM | > 100 | 27 µM | > 100 µM | 67.4 µM | > 100 µM | 51.1 µM | > 100 | 25.9 µM | > 100 µM
3 | CN(CC(=O)Nc1nc2ccccc2[nH]1)S(=O)(=O)c1ccc(Cl)cc1 | > 100 µM | > 100 | > 100 | > 100 µM | > 100 µM | > 100 | > 100 µM | > 100 µM | > 100 µM | > 100 µM | > 100 µM | > 100 | – | – | > 100 µM | > 100 µM | > 100 µM | > 100 | > 100 µM | > 100 µM
4 | CCC(=O)Nc1ccc(C)c(-c2ccc(C(=O)NCC3CC3)cc2)c1 | > 25 µM | > 25 | > 25 | > 25 µM | > 25 µM | > 25 | > 25 µM | > 25 µM | > 25 µM | > 25 µM | > 25 µM | > 25 | > 25 µM | > 25 µM | > 25 µM | > 25 µM | > 25 µM | > 25 | > 25 µM | > 25 µM
5 | O=C(Nc1cccc(-c2ccc(Cl)c(C(F)(F)F)c2)c1)C1CCN(Cc2cccc3cccnc23)CC1 | 1.91 µM | 3.85 | 1.65 | 3.18 µM | 1.5 µM | 2.89 | 1.65 µM | 3.08 µM | 1.64 µM | 3.19 µM | 1.87 µM | 3.55 | 1.73 µM | 3.22 µM | 1.76 µM | 3.37 µM | 1.77 µM | 3.54 | 1.69 µM | 3.09 µM
6 | C/C(O)=C(\C#N)C(=O)Nc1ccc(C(F)(F)F)cc1 | 26.5 µM | > 100 | 51.7 | > 100 µM | 8.21 µM | > 100 | 62.8 µM | > 100 µM | 73.7 µM | > 100 µM | 8.92 µM | > 100 | – | – | 94.5 µM | > 100 µM | 36.4 µM | > 100 | 15.6 µM | > 100 µM
7 | COc1cc(C2=N/C(=C/c3cccs3)C(=O)O2)cc(OC)c1OC | – | > 100 | – | > 100 µM | – | > 100 | – | > 100 µM | – | > 100 µM | – | > 100 | – | > 100 µM | – | > 100 µM | – | > 100 | – | > 100 µM
8 | Cc1ccc(C(=O)/C(=C\c2ccc([N+](=O)[O-])cc2)S(=O)Cc2ccc(Cl)cc2)cc1 (stereo not given) | 3.05 µM | 11 | 1.73 | 3.22 µM | 1.55 µM | 3.04 | 1.74 µM | 3.64 µM | 1.83 µM | 3.89 µM | 1.84 µM | 3.9 | 1.8 µM | 4.28 µM | 9.55 µM | 21.3 µM | 1.59 µM | 3.44 | 1.65 µM | 3.22 µM
9 | Cc1ccc(NS(=O)(=O)c2cccc(C#N)c2)c2[nH]cc(C#N)c12 | 17.9 µM and 12.7 µM | > 100 | – | 65.8 µM and 48.4 µM | 16.7 µM and 14.9 µM | > 100 | 15.5 µM and 12.9 µM | 57.1 µM and 68.2 µM | 27.5 µM and 27.7 µM | 84.6 µM and > 100 µM | 18.1 µM and 22.6 µM | > 100 | 2.85 µM and 2.22 µM | 49.7 µM and 52.9 µM | 0.829 µM and 0.361 µM | 63.4 µM and 74.1 µM | 0.76 µM and 1.7 µM | > 100 | 7.07 µM and 15.4 µM | 32.2 µM and 53.2 µM
10 | COc1ccc2c(c1)C(=O)/C(=C/c1ccc([N+](=O)[O-])o1)O2 | 2.68 µM | > 22.8 | 1.53 | 3.44 µM | 1.4 µM | 2.86 | 1.61 µM | 3.48 µM | 1.8 µM | 4 µM | 1.75 µM | 3.83 | 2.35 µM | 9.89 µM | 5.36 µM | > 29.9 µM | 0.459 µM | 1.22 | 1.36 µM | 2.91 µM
11 | Oc1c(Cl)cc(Cl)cc1C(c1cc(Cl)cc(Cl)c1O)C(Cl)(Cl)Cl | 3.77 µM | 14.4 | 2.27 | 6.93 µM | 2.08 µM | 5.57 | 2.8 µM | 7.2 µM | 1.45 µM | 5.15 µM | 2.01 µM | 9.38 | 1.35 µM | 3.53 µM | 3.01 µM | 13.3 µM | 2.98 µM | 12.2 | 0.73 µM | 10.6 µM
12 | Cc1cn2c(/C=N/N=C(N)N)c(-c3ccccn3)nc2s1 | 21.1 µM | > 70.1 | 7.69 | 25.9 µM | 20.1 µM | 46.1 | 21.8 µM | 44.4 µM | 6.65 µM | 16.7 µM | 14.9 µM | > 75.6 | 17.1 µM | 37.1 µM | 26.8 µM | > 65 µM | 7.61 µM | 25 | 15.9 µM | 31.6 µM
13 | [N-]=[N+]=NCCCn1c2c(c3ccc([N+](=O)[O-])cc3c1=O)C(=O)c1cc(F)ccc1-2 | 5.14 µM | > 100 | 5.37 | > 100 µM | 0.343 µM | 1.86 | 3.46 µM | 19.8 µM | 2.69 µM | 19 µM | 0.132 µM | 2.34 | 0.338 µM | 9.94 µM | 2.82 µM | 19.3 µM | 1.76 µM | > 100 | 0.523 µM | 3.55 µM
